Results published in patent publication US20210161868A1, “ANTI-INFLAMMATORY THERAPY IN ARRHYTHMOGENIC CARDIOMYOPATHY (ACM)” (Beth Israel Deaconess Medical Center, Inc., priority 2018, published 2021).
Entries after “also recorded” stand apart in the source; their conditions may differ.

Columns and labels:
[1] = system: neonatal rat ventricular myocytes (NRVMs) expressing JUP^2157del2; experiment: ACM features (protein distribution, immunofluorescence) in NRVMs expressing mutant plakoglobin; format: cell-based; design: pattern of distribution of plakoglobin, Cx43 and GSK3β: dose or concentration left out as unconfirmed
From the text: All animal studies were in full compliance with policies of Beth Israel Deaconess Medical Center, Johns Hopkins School of Medicine and St. George's University of London. They also conformed to the Guide for the Care and Use of Laboratory Animals from the National Institutes of Health (NIH publication no. 85-23, revised 1996). In vitro studies involved transfection of cultured neonatal rat ventricular myocytes with a mutant allele of the desmosomal protein plakoglobin (2157de12) as previously described.^15 In vivo studies were performed in mice with homozygous knock-in of a mutant form of Dsg2, the gene encoding the desmosomal cadherin desmoglein-2 (Dsg2^mut/mut mice) as previously described.^6 This mutation entails loss of exons 4 and 5 which causes a frameshift and premature termination of translation.
Primary cultures were prepared from disaggregated ventricles of 1-day-old Wistar rat pups (Charles River) as previously described.^15 Cell suspensions were pre-plated to reduce fibroblast content, placed in collagen-coated chamber slides at a density of 2.4×10^5 cells/cm^2, and grown for 4 days at 37° C. in M199 medium (GIBCO) (supplemented with penicillin, 20 U/mL; streptomycin, 20 μg/mL; 10% neonatal calf serum and 0.1 mM bromodeoxyuridine) in a humidified atmosphere containing 1% CO2. Epinephrine (0.01 μmol/mL) was added during the first 24 hours of culture. […]

[2] = system: Dsg2^mut/mut mice; experiment: Myocardial histology, TUNEL, immunofluorescence and immunoperoxidase in Dsg2^mut/mut mice; format: in vivo
Procedure: Three cohorts of mice at 8 weeks of age were anesthetized and implanted with subcutaneous osmotic mini-pumps (Alzet, Model 1004). These included: 1) Dsg2^mut/mut mice with pumps containing 50 μg/μL Bay11-7082 in a vehicle of 65% DMSO, 15% ethanol, and 20% saline; 2) Dsg2^mut/mut mice with pumps containing an equivalent volume of vehicle; and 3) wildtype mice with pumps containing vehicle. Mice in cohort 1 received 5 mg/kg/day of Bay11-7082 by continuous infusion; those in cohorts 2 and 3 received an equivalent volume of vehicle each day for 4 weeks. At 12 weeks of age, mice were re-anesthetized and new Alzet pumps were implanted for an additional 4 weeks of treatment.
Immunofluorescence staining was used to characterize the distribution of selected proteins at cell-cell junctions as previously reported.^6,15 Deparaffinized slide-mounted myocardial sections (5 μm thick) were rehydrated and heated in citrate buffer (10 mmol/L, pH 6.0) to enhance specific immunostaining. After being cooled to room temperature, tissue sections were simultaneously permeabelized and blocked by incubating them in PBS containing 1% Triton X-100, 3% normal goat serum and 1% bovine serum albumin. The sections were then incubated first with primary antibodies and then with Cy3-conjugated goat anti-rabbit IgG (Jackson Immunolabs, 1:400). Primary antibodies included rabbit polyclonal anti-Cx43 (SIGMA C6219, 1:200), anti-N-cadherin (SIGMA C3678, 1:400), anti-plakoglobin (Thermo Fisher Scientific PA5-17320, 1:500), anti-GSK3β (Cell Signaling Technology 27C10, 9315S, 1:80) and anti-SAP97 (Abcam, ab134156, 1:200). Immunostained preparations were visualized by confocal microscopy. Additional sections prepared with Masson trichrome and hematoxylin & eosin stains were examined by light microscopy.
Immunoperoxidase staining was used to detect expression of selected cytokines in sections of mouse myocardium as previously reported.^12 Slide-mounted paraffin sections were heated to 60° C. for 80 minutes, cooled to room temperature, deparaffinized, and rehydrated. Antigen retrieval was achieved by heating the samples in citrate buffer (pH 6.0) to boiling followed by cooling to room temperature. Immunohistochemical staining was performed using conventional methods (Universal DAKO EnVision System; peroxidase). Once endogenous peroxidase activity had been blocked, primary antibody was applied followed by incubation with horseradish peroxidase-labeled polymer. The reaction was completed with an enzyme/substrate system, with diaminobenzidine as the chromogen substrate. The tissue was counterstained with Harris hematoxylin. Primary antibodies included rabbit polyclonal anti-TNFα (AbCam ab34674, 1:50 dilution), anti-IL-1(3 (AbCam ab9722, 1:500) and anti-MCP-1α (Novus Biologicals NBP2-41209, 1:250). In each experiment, control, vehicle-treated and drug-treated samples were batched to ensure identical staining and signal-generating conditions.
Immunoperoxidase staining using conventional techniques was also used to detect T-cells and macrophages in myocardial tissue sections from Dsg2^mut/mut mice. T-cells were identified using an anti-CD3 antibody (Abcam ab16669, 1:200 dilution) and macrophages were marked with an anti-CD68 antibody (Abcam ab127055, 1:400). After standard development in diaminobenzidine, sections were counterstained with hematoxylin and examined qualitatively by light microscopy.

[3] = Dsg2^mut/mut mice, continuous infusion over 8 weeks

In the case of `Cc1ccc(S(=O)(=O)/C=C/C#N)cc1` [Bay 11-7082], the “in vitro readouts of the ACM phenotype (plakoglobin, Cx43, apoptosis, cytokines)” value ([1]; NRVMs expressing mutant plakoglobin) is reported as “blocked; also recorded: completely reversed”, the “pattern of distribution of plakoglobin, Cx43 and GSK3β” value ([1]; transfected NRVMs, Bay11-7082, 24 hours) is reported as “normalized; also recorded: indistinguishable from that seen in control” and the “abnormal distributions of plakoglobin, Cx43, GSK3β and SAP97” value [2, 3] is reported as “normalized”. For the same compound, the “amount of ventricular myocardial necrosis and fibrosis” value [2, 3] was “marked reduction”, the “number of apoptotic cells seen by TUNEL labeling” value [2, 3] was “significant reduction” and the “abnormal distributions of plakoglobin, Cx43, GSK3β and SAP97” value ([2]; Dsg2^mut/mut mice, continuous infusion over 8 weeks, listed as Bay11-7082) was “fully corrected”. The “immunoreactive signal intensity for IL-1β, TNFα and MCP-1α in myocytes and inflammatory cells” value ([2]; myocardial sections of Dsg2^mut/mut mice) was “reduced” and the “total number of infiltrating inflammatory cells in the heart” value ([2]; survey of myocardial sections, Dsg2^mut/mut mice) was “reduced”.
